Test results as given in ChEMBL document CHEMBL1201862, “PubChem BioAssay data set” (2004).
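Briefly, cells in 96-well plates were exposed to five compound concentrations for 48 h, and endpoints were estimated by linear interpolation. GI50 is the concentration that inhibits growth by half.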 Active and inactive are the calls of the source. Rule as the data show it: active = GI50 up to about 1.1 µM and inactive = higher.

Assays:
Test in all cases: inhibition of tumour cell growth, NCI panel, 48 h
[1] = system: U-251
[2] = system: DU-145
[3] = system: HCT-116
[4] = system: Hs-578T
[5] = system: HOP-62
[6] = system: LOX IMVI
[7] = system: SK-MEL-5
[8] = system: K562
[9] = system: SK-MEL-2
[10] = system: OVCAR-3
[11] = system: TK-10
[12] = system: SNB-75
[13] = system: IGROV-1
[14] = system: CCRF-CEM
[15] = system: SR
[16] = system: UACC-257
[17] = system: 786-0
[18] = system: COLO 205
[19] = system: NCI-H460
[20] = system: EKVX
[21] = system: MCF7
[22] = system: UO-31
[23] = system: HCT-15
[24] = system: SF-539
[25] = system: MDA-MB-231
[26] = system: RPMI-8226
[27] = system: ACHN
[28] = system: OVCAR-8
[29] = system: HL-60
[30] = system: HOP-92
[31] = system: OVCAR-5
[32] = system: NCI/ADR-RES
[33] = system: SNB-19
[34] = system: SK-MEL-28
[35] = system: A549
[36] = system: NCI-H522
[37] = system: NCI-H226
[38] = system: SN12C
[39] = system: MDA-N
[40] = system: SF-268
[41] = system: M14
[42] = system: KM12
[43] = system: SF-295
[44] = system: SW-620
[45] = system: T47D
[46] = system: MOLT-4
[47] = system: HCC 2998
[48] = system: NCI-H23
[49] = system: PC-3
[50] = system: MDA-MB-435
[51] = system: HT-29
[52] = system: CAKI-1
[53] = system: Malme-3M
[54] = system: UACC-62
[55] = system: A498
[56] = system: OVCAR-4
[57] = system: SK-OV-3

With `NCCS(=O)(=O)O` [TAURINE] the GI50 [1] was > 100 µM (inactive), the GI50 [2] was > 100 µM (inactive) and the GI50 [3] was > 100 µM (inactive). For the same compound, the GI50 [4] was > 100 µM (inactive), the GI50 [5] was > 100 µM (inactive) and the GI50 [6] was > 100 µM (inactive). The GI50 [7] was > 100 µM (inactive), the GI50 [8] was > 100 µM (inactive) and the GI50 [9] was > 100 µM (inactive). For the same compound, the GI50 [10] was > 100 µM (inactive), the GI50 [11] was > 100 µM (inactive) and the GI50 [12] was > 100 µM (inactive). The GI50 [13] was > 100 µM (inactive), the GI50 [14] was > 100 µM (inactive) and the GI50 [15] was > 100 µM (inactive). For the same compound, the GI50 [16] was > 100 µM (inactive), the GI50 [17] was > 100 µM (inactive) and the GI50 [18] was > 100 µM (inactive). The GI50 [19] was > 100 µM (inactive), the GI50 [20] was > 100 µM (inactive) and the GI50 [21] was > 100 µM (inactive). For the same compound, the GI50 [22] was > 100 µM (inactive), the GI50 [23] was over 100 µM and the GI50 [24] was > 100 µM (inactive). The GI50 [25] was > 100 µM (inactive), the GI50 [26] was > 100 µM (inactive) and the GI50 [27] was > 100 µM (inactive). The GI50 [28] was > 100 µM (inactive), the GI50 [29] was > 100 µM (inactive) and the GI50 [30] was > 100 µM (inactive). For the same compound, the GI50 [31] was > 100 µM (inactive), the GI50 [32] was > 100 µM (inactive) and the GI50 [33] was > 100 µM (inactive). The GI50 [34] was > 100 µM (inactive), the GI50 [35] was > 100 µM (inactive) and the GI50 [36] was > 100 µM (inactive). For the same compound, the GI50 [37] was > 100 µM (inactive), the GI50 [38] was > 100 µM (inactive) and the GI50 [39] was > 100 µM (inactive). For the same compound, the GI50 [40] was > 100 µM (inactive), the GI50 [41] was > 100 µM (inactive) and the GI50 [42] was > 100 µM (inactive). The GI50 [43] was > 100 µM (inactive), the GI50 [44] was > 100 µM (inactive) and the GI50 [45] was > 100 µM (inactive). For the same compound, the GI50 [46] was > 100 µM (inactive), the GI50 [47] was > 100 µM (inactive) and the GI50 [48] was > 100 µM (inactive). For the same compound, the GI50 [49] was > 100 µM (inactive), the GI50 [50] was > 100 µM (inactive) and the GI50 [51] was > 100 µM (inactive). For the same compound, the GI50 [52] was > 100 µM (inactive) and the GI50 [53] was > 100 µM (inactive).

`COC(C)(C)C1(O)CC[C@@H](C)CC1=O` (some centres not stated) was tested, and the GI50 [2] was > 100 µM (inactive), the GI50 [3] was > 100 µM (inactive) and the GI50 [5] was > 100 µM (inactive). The GI50 [11] was > 100 µM (inactive), the GI50 [12] was > 100 µM (inactive) and the GI50 [16] was > 100 µM (inactive). For the same compound, the GI50 [20] was > 100 µM (inactive), the GI50 [54] was > 100 µM (inactive) and the GI50 [21] was > 100 µM (inactive). The GI50 [23] was over 100 µM, the GI50 [24] was > 100 µM (inactive) and the GI50 [26] was > 100 µM (inactive). The GI50 [27] was > 100 µM (inactive), the GI50 [55] was > 100 µM (inactive) and the GI50 [31] was > 100 µM (inactive). For the same compound, the GI50 [34] was > 100 µM (inactive), the GI50 [35] was > 100 µM (inactive) and the GI50 [36] was > 100 µM (inactive). The GI50 [38] was > 100 µM (inactive), the GI50 [40] was > 100 µM (inactive) and the GI50 [41] was > 100 µM (inactive). For the same compound, the GI50 [56] was > 100 µM (inactive), the GI50 [42] was > 100 µM (inactive) and the GI50 [43] was > 100 µM (inactive). The GI50 [44] was > 100 µM (inactive), the GI50 [48] was > 100 µM (inactive) and the GI50 [50] was > 100 µM (inactive). For the same compound, the GI50 [53] was > 100 µM (inactive).

In the case of `CO[C@@H]1/C=C\C=C(/C)C(=O)NC2=CC(=O)C(NCCN(C)C)=C(C[C@@H](C)C[C@@H](OC)[C@@H](O)[C@H](C)/C=C(\C)[C@H]1OC(N)=O)C2=O`, the GI50 [1] is reported as < 0.01 µM (active), the GI50 [3] is reported as < 0.0132 µM (active) and the GI50 [6] is reported as < 0.01 µM (active). For the same compound, the GI50 [57] was 0.0121 µM (active), the GI50 [13] was < 0.01 µM (active) and the GI50 [14] was < 0.0144 µM (active). The GI50 [16] was 0.0121 µM (active), the GI50 [17] was < 0.0204 µM (active) and the GI50 [18] was < 0.01 µM (active). The GI50 [19] was < 0.01 µM (active), the GI50 [54] was < 0.01 µM (active) and the GI50 [22] was 0.652 µM (active). The GI50 [23] was 0.345 µM, the GI50 [26] was 0.121 µM (active) and the GI50 [28] was < 0.0191 µM (active). For the same compound, the GI50 [33] was < 0.0236 µM (active), the GI50 [35] was < 0.0117 µM (active) and the GI50 [38] was < 0.01 µM (active). For the same compound, the GI50 [39] was < 0.01 µM (active), the GI50 [41] was < 0.01 µM (active) and the GI50 [56] was 0.841 µM (active). For the same compound, the GI50 [42] was < 0.01 µM (active), the GI50 [46] was 0.0166 µM (active) and the GI50 [47] was < 0.0118 µM (active). For the same compound, the GI50 [50] was < 0.01 µM (active) and the GI50 [53] was < 0.01 µM (active).
